Experimental data: ChEMBL document CHEMBL1201862, “PubChem BioAssay data set” (2004)
Counter-ions that a name gives are not always drawn.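 Exposure lasted 48 hours, with cells grown in 96-well plates and compounds tested at five concentrations. Here, GI50 denotes the concentration required for 50% inhibition of growth.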 Activity calls are given as the source filed them. No stated cut-off is given here; in the data, active = GI50 up to about 1.1 µM and inactive = higher.

Experiments:
Test in all cases: DTP human tumour cell line panel, 48 h
KM12 = tested on: KM12
HL-60 = tested on: HL-60
TK-10 = tested on: TK-10
MDA-N = tested on: MDA-N
SF-268 = tested on: SF-268
SNB-75 = tested on: SNB-75
K562 = tested on: K562
HCC 2998 = tested on: HCC 2998
ACHN = tested on: ACHN
OVCAR-3 = tested on: OVCAR-3
NCI-H226 = tested on: NCI-H226
Malme-3M = tested on: Malme-3M
NCI-H23 = tested on: NCI-H23
NCI-H460 = tested on: NCI-H460
MDA-MB-231 = tested on: MDA-MB-231
SK-MEL-5 = tested on: SK-MEL-5
A498 = tested on: A498

Structure (SMILES)	GI50 (KM12)	GI50 (HL-60)	GI50 (TK-10)	GI50 (MDA-N)	GI50 (SF-268)	GI50 (SNB-75)	GI50 (K562)	GI50 (HCC 2998)	GI50 (ACHN)	GI50 (OVCAR-3)	GI50 (NCI-H226)	GI50 (Malme-3M)	GI50 (NCI-H23)	GI50 (NCI-H460)	GI50 (MDA-MB-231)	GI50 (SK-MEL-5)	GI50 (A498)
CCOC(=O)NC(Nc1ccc(S(=O)(=O)Nc2ccc(OC)nn2)cc1)(C(F)(F)F)C(F)(F)F	30.8 µM (inactive)	26.7 µM (inactive)	27.7 µM (inactive)	42 µM (inactive)	36.1 µM (inactive)	26.8 µM (inactive)	32.2 µM (inactive)	> 100 µM (inactive)	27 µM (inactive)	20.7 µM (inactive)	23 µM (inactive)	20.2 µM (inactive)	31.3 µM (inactive)	41.6 µM (inactive)	18.8 µM (inactive)	17.8 µM (inactive)	26.3 µM (inactive)
O=C(O)C1(Cc2ccccc2)Cc2ccccc2C1	> 100 µM (inactive)	> 100 µM (inactive)	> 100 µM (inactive)	> 100 µM (inactive)	> 100 µM (inactive)	10.6 µM (inactive)	> 100 µM (inactive)	> 100 µM (inactive)	> 100 µM (inactive)	> 100 µM (inactive)	> 100 µM (inactive)	> 100 µM (inactive)	> 100 µM (inactive)	> 100 µM (inactive)	> 100 µM (inactive)	> 100 µM (inactive)	> 100 µM (inactive)
c1ccc(/C(=N/Nc2ccccn2)c2ncccn2)cc1	3.18 µM (inactive)	0.0524 µM (active)	–	16.5 µM (inactive)	0.855 µM (active)	1.87 µM (inactive)	0.121 µM (active)	> 30 µM (inactive)	0.112 µM (active)	0.386 µM (active)	0.201 µM (active)	0.538 µM (active)	1.74 µM (inactive)	0.906 µM (active)	0.55 µM (active)	0.745 µM (active)	> 100 µM (inactive)
CNC1=C(C)C(=O)C(O)=C([C@H](C)CCC=C(C)C)C1=O	17 µM (inactive)	2.4 µM (inactive)	31 µM (inactive)	29.6 µM (inactive)	19.1 µM (inactive)	18 µM (inactive)	29 µM (inactive)	31.8 µM (inactive)	11.2 µM (inactive)	11.7 µM (inactive)	22.1 µM (inactive)	16 µM (inactive)	20 µM (inactive)	10.5 µM (inactive)	48 µM (inactive)	14.4 µM (inactive)	19.5 µM (inactive)
CC1=C(C(=O)OC2CC3CCC2(C)C3(C)C)C2Nc3ccccc3N(C)C2O1 (configuration not stated)	2.43 µM (inactive)	2.1 µM (inactive)	4.07 µM (inactive)	1.77 µM (inactive)	4.8 µM (inactive)	3.43 µM (inactive)	3.66 µM (inactive)	1.66 µM (inactive)	2.74 µM (inactive)	2.24 µM (inactive)	4.3 µM (inactive)	–	2.39 µM (inactive)	1.6 µM (inactive)	3.01 µM (inactive)	1.69 µM (inactive)	6.12 µM (inactive)
CCOC(=O)/C(=C\c1c[nH]c2ccccc12)P(=O)(OCC)OCC	33.2 µM (inactive)	37.5 µM (inactive)	42.6 µM (inactive)	35.8 µM (inactive)	29.5 µM (inactive)	26.5 µM (inactive)	50.9 µM (inactive)	65.3 µM (inactive)	41.4 µM (inactive)	19.3 µM (inactive)	28.3 µM (inactive)	18.9 µM (inactive)	29.6 µM (inactive)	24.5 µM (inactive)	27.7 µM (inactive)	55.8 µM (inactive)	28.8 µM (inactive)
c1ccc([C@H]2CN3CCSC3=N2)cc1 [LEVAMISOLE HYDROCHLORIDE]	> 100 µM (inactive)	> 100 µM (inactive)	–	> 100 µM (inactive)	> 100 µM (inactive)	> 100 µM (inactive)	> 100 µM (inactive)	> 100 µM (inactive)	> 100 µM (inactive)	> 100 µM (inactive)	> 100 µM (inactive)	> 100 µM (inactive)	> 100 µM (inactive)	> 100 µM (inactive)	> 100 µM (inactive)	> 100 µM (inactive)	> 100 µM (inactive)
N#CCCN(CCCN(C(=O)N(c1ccccc1)c1ccccc1)c1ccccc1)C(=O)Nc1ccccc1	41.6 µM (inactive)	8.91 µM (inactive)	> 100 µM (inactive)	> 100 µM (inactive)	> 100 µM (inactive)	14 µM (inactive)	28.6 µM (inactive)	> 100 µM (inactive)	93.3 µM (inactive)	> 100 µM (inactive)	> 100 µM (inactive)	> 100 µM (inactive)	> 100 µM (inactive)	40 µM (inactive)	> 100 µM (inactive)	24.9 µM (inactive)	> 100 µM (inactive)
COC(=O)/C=C1\C(=O)C=C2[C@@H]3C[C@H]4C[C@H](CC[C@@]4(C)N21)C3(C)NC(C)=O (some centres not stated)	16 µM (inactive)	5.55 µM (inactive)	15.7 µM (inactive)	11.2 µM (inactive)	6.68 µM (inactive)	13.2 µM (inactive)	7.66 µM (inactive)	26.9 µM (inactive)	16 µM (inactive)	11.8 µM (inactive)	25.5 µM (inactive)	–	23.7 µM (inactive)	29.8 µM (inactive)	26 µM (inactive)	11.1 µM (inactive)	19 µM (inactive)
Oc1ccc(Cl)cc1Cc1cc(Cl)cc(Cc2cc(Cl)ccc2O)c1O	2.64 µM (inactive)	2.3 µM (inactive)	2.72 µM (inactive)	2.66 µM (inactive)	2.69 µM (inactive)	1.93 µM (inactive)	1.63 µM (inactive)	0.836 µM (active)	2.29 µM (inactive)	2.24 µM (inactive)	2.74 µM (inactive)	1.95 µM (inactive)	2.01 µM (inactive)	1.77 µM (inactive)	2.53 µM (inactive)	1.11 µM (active)	1.46 µM (inactive)
CCN(CC)CCN1C(=O)c2cccc3cc(N)cc(c23)C1=O	9.73 µM (inactive)	16.6 µM (inactive)	17.9 µM (inactive)	10.3 µM (inactive)	12.6 µM (inactive)	15.8 µM (inactive)	5.98 µM (inactive)	8.61 µM (inactive)	4.94 µM (inactive)	12.7 µM (inactive)	16.6 µM (inactive)	13 µM (inactive)	7.23 µM (inactive)	3.98 µM (inactive)	16.9 µM (inactive)	12.9 µM (inactive)	19.1 µM (inactive)
COC(=O)N1CC[C@@H]2CCC=C(c3cccc4c3OCO4)[C@@H]21	> 100 µM (inactive)	30.9 µM (inactive)	82.8 µM (inactive)	> 100 µM (inactive)	> 100 µM (inactive)	17.7 µM (inactive)	42.8 µM (inactive)	> 100 µM (inactive)	> 100 µM (inactive)	> 100 µM (inactive)	> 100 µM (inactive)	> 100 µM (inactive)	> 100 µM (inactive)	60 µM (inactive)	> 100 µM (inactive)	61.4 µM (inactive)	> 100 µM (inactive)
O=[N+]([O-])c1ccc(CSc2c3ccccc3nc3ccccc23)cc1	4.62 µM (inactive)	2.52 µM (inactive)	6.62 µM (inactive)	9.86 µM (inactive)	7.64 µM (inactive)	19 µM (inactive)	5.01 µM (inactive)	16.1 µM (inactive)	3.37 µM (inactive)	4.53 µM (inactive)	16.7 µM (inactive)	2.34 µM (inactive)	7.05 µM (inactive)	20.6 µM (inactive)	13.5 µM (inactive)	16.7 µM (inactive)	23.7 µM (inactive)
O=C(O)Cc1ccc(Oc2nc3ccccc3nc2-c2cccs2)cc1	44.2 µM (inactive)	55.8 µM (inactive)	95.1 µM (inactive)	82.2 µM (inactive)	66.4 µM (inactive)	27.2 µM (inactive)	99.3 µM (inactive)	57.4 µM (inactive)	56.6 µM (inactive)	48.4 µM (inactive)	52.4 µM (inactive)	> 100 µM (inactive)	55.8 µM (inactive)	50.7 µM (inactive)	> 100 µM (inactive)	72.9 µM (inactive)	22.1 µM (inactive)
CC(C)OP(=O)(OC(C)C)/C(C#N)=C/c1c[nH]c2ccccc12	> 100 µM (inactive)	19.1 µM (inactive)	> 100 µM (inactive)	> 100 µM (inactive)	> 100 µM (inactive)	72.6 µM (inactive)	> 100 µM (inactive)	> 100 µM (inactive)	86.3 µM (inactive)	34 µM (inactive)	94 µM (inactive)	86.3 µM (inactive)	46.2 µM (inactive)	> 100 µM (inactive)	> 100 µM (inactive)	51.3 µM (inactive)	> 100 µM (inactive)
CCOC(=O)NC(Nc1cc(Cl)ccc1OC)(C(F)(F)F)C(F)(F)F	> 100 µM (inactive)	> 100 µM (inactive)	> 100 µM (inactive)	> 100 µM (inactive)	> 100 µM (inactive)	> 100 µM (inactive)	> 100 µM (inactive)	> 100 µM (inactive)	> 100 µM (inactive)	> 100 µM (inactive)	> 100 µM (inactive)	> 100 µM (inactive)	> 100 µM (inactive)	> 100 µM (inactive)	> 100 µM (inactive)	> 100 µM (inactive)	> 100 µM (inactive)
S=C1SC(=N\c2ccccc2)/C(=N/c2ccccc2)N1c1ccc2ccccc2c1	> 100 µM (inactive)	> 100 µM (inactive)	–	> 100 µM (inactive)	–	74.8 µM (inactive)	> 100 µM (inactive)	> 100 µM (inactive)	–	> 100 µM (inactive)	> 100 µM (inactive)	> 100 µM (inactive)	> 100 µM (inactive)	> 10 µM (inactive)	> 100 µM (inactive)	38.1 µM (inactive)	> 100 µM (inactive)
